Experimental findings from a melting point compilation (Tetko et al.) are described below.

Each structure is given as a SMILES string.

For orientation: melting point means the temperature, or range, at which the solid turns liquid.

For `O=C(O)CNC(=O)N1CCc2ccccc2C1`, the melting point lay within 159 to 161 °C.

Turning to `O=C(O)c1cc(Cl)c2c(c1)OCCCO2`, the melting point lay in the range of 195 to 197 °C. Next, `CCc1cc2c(=O)[nH]cnc2s1`: 183 to 185 °C; `N#Cc1cnc2ccc(OC(F)F)cc2c1Cl`: 103 to 105 °C; `CC(Cl)C(=O)N1CCSc2ccccc21` (stereo not given): 81 to 83 °C. As to `O=[N+]([O-])c1cccc2cc(I)cnc12`, the melting point lay within 118 to 120 °C. In turn, `O=C(O)c1cc(S(=O)(=O)Cl)cs1` registered a melting point of 139 to 141 °C. Next, `O=c1[nH]c2cnccc2n1Cc1ccccc1`: 213 to 215 °C; `CC(C)(C)OC(=O)N1CCc2nc(N)sc2C1`: 226 to 228 °C.

Turning to `O=S1(=O)CC(O)C(NCc2ccco2)C1` (stereo not given), the melting point is 139 to 141 °C.

The molecule `CCCCc1ccc2nc(N)sc2c1` displayed a melting point of 95 to 101 °C. The molecule `CS(=O)(=O)CBr` yielded a melting point of 34 to 36 °C. Under `O=c1cnc2cc(F)c(F)cc2[nH]1` stands 289 to 291 °C; under `ClCc1csc(-c2ccccc2Cl)n1`, 55 to 57 °C; under `COC(=O)c1cc([N+](=O)[O-])cc([N+](=O)[O-])c1F`, 67 to 69 °C. Under `Nc1ccccc1S(=O)(=O)N1CCOCC1` stands 114 to 116 °C.

In turn, `O=[N+]([O-])c1ccc(N2CCOCC2)nc1` yielded a melting point of 143 to 145 °C.

For the molecule `CC(NC(=O)OC(C)(C)C)c1ccc(CN)cc1` (stereo not given), the melting point lay within 78 to 80 °C.

`COc1cc(NC(=O)NN)c(OC)cc1Cl` showed a melting point of 168 to 170 °C. Under `Cc1nc(-c2ccsc2)ccc1C(=O)O` stands 174 to 176 °C.
